≈ marks a conversion by molar mass, not a printed value. Read-outs that look alike come from different tables or passages of the source.
What was measured:
MRSA = conditions: cited from earlier work
[1] = test system: Staphylococcus aureus clinical isolated; design: method as in PMID 30583020; conditions: cited from earlier work
MRSA clinical isolated = conditions: cited from earlier work
[2] = design: method as in PMID 32793420; conditions: cited from earlier work
[3] = test system: Staphylococcus aureus ATCC 29213; design: method as in PMID 23019189, PMID 34067029; conditions: cited from earlier work
S. aureus or MRSA = test system: S. aureus or MRSA; design: method as in PMID 23029218; conditions: 45 passages of stepwise isolation of S. aureus or MRSA on Luria-Bertani agar with rhodomyrtone; cited from earlier work
Bacillus cereus = test system: Bacillus cereus; design: method as in PMID 34067029; conditions: cited from earlier work
[4] = Pharmacokinetics of rhodomyrtone in rats after a single oral dose (HPLC-UV plasma analysis, non-compartment model); assay type: in vivo, Sprague Dawley rats; conditions: for AUC(0-t): read-out: AUC0–8; for Tmax / Vd/F: po; for k el: read-out: λz (converted)
Experimental: The HPLC method was used to quantify the concentration of rhodomyrtone in rat plasma after a single oral administration of 50 and 100 mg/kg. Blood samples were collected from tail veins at 0, 0.25, 0.5, 1, 2, 3, 4, 5, 6, 7 and 8 h. Rat plasma samples were prepared as described in Section 3.3. Rhodomyrtone was analyzed using a Bondapak C18 HPLC column at 25 °C. […] After several trials, the mobile phase was optimized to achieve good resolution and symmetric peak shapes for both rhodomyrtone and papaverine. […] An appropriate wavelength at 302 nm gave good sensitivity, with no interfering substance of other components. […] The curve of the rhodomyrtone concentration–time profiles was fitted in a non-compartment pharmacokinetic model due to the whole organism as a single compartment where the drug distributes homogeneously and instantaneously, resulting in a constant volume of distribution. The non-compartment model is multifaceted, and it is acceptable for bioequivalence studies.
An aliquot of each rat plasma sample (100 µL) or validation sample was pipetted into a 1.5 mL microcentrifuge tube, spiked with 25 µL papaverine working standard, then the rat plasma was deproteinized with 75 µL acetonitrile, mixed for 30 s and dropped off 5 min to precipitate the protein. The insoluble content was separated from plasma by centrifugation at 5000× g at 10 °C for 15 min, and we collected the supernatant. All samples were filtered through a 0.22 μm PTFE membrane filter. Subsequently, each sample was transferred into glass insert vials. The HPLC injection volume was 80 µL.
HPLC system consisted of Waters Alliance 2695, a model 2487 UV-Vis detector (Waters Associates, Milford, MA, USA). The maximum UV absorbance of rhodomyrtone was detected from 250 to 310 nm. Therefore, the detection wavelength was set at wavelength 302 nm. The chromatographic data were collected and analyzed using Millenium 32® software. Waters Bondapak C18 column, 5 μm, 4.6 mm × 150 mm, was used to set the standard for HPLC drug analytical measurement procedure. The mobile phase consisted of a mixture of acetonitrile and deionized water (80:20% v/v). The mobile phase was pre-filtered through a 0.20 μm filter and was delivered at a rate of 1 mL/min.
Male Sprague Dawley rats weighing 250–350 g were housed in separate stainless cages under a controlled environment (temperature at 22 ± 2 °C and relative humidity of 55 ± 10% with 12 h light and 12 h dark cycles) at the Southern Laboratory Animal Facility, Faculty of Science, Prince of Songkla University, Thailand. During the experimental period, they received a standard rodent diet with free access to ad libitum drinking water. Rats were divided into two groups, each consisting of 12 animals. Each group received a single oral dose of rhodomyrtone (dissolved in medium-chain triglyceride) at 50 mg/kg body weight (Group 1) and 100 mg/kg body weight (Group 2). The animals were fasted for 10 h prior to the experiment. An initial blood sample was taken by clipping the end of the animals’ tails. Blood samples (500 μL) were collected at time intervals of 0 (predose), 0.25, 0.5, 1, 2, 3, 4, 5, 6, 7 and 8 h. The samples were transferred to a heparinized microcentrifuge tube and centrifuged at 2500× g at 10 °C for 10 min. The plasma samples were stored at −80 °C until HPLC analysis.
The individual plasma concentration–time profiles were visually inspected to determine the maximum plasma concentration (Cmax), the minimum plasma concentration (Cmin) and the time to maximum plasma concentration (tmax). WinNonlin Version 1.1 (Scientific Consulting, Apex, NC, USA) was used to analyze the data and calculate for elimination half-life time (t1/2), elimination rate constant (λz), volume of distribution (Vz/F), area under the concentration–time curve between 0 and 8 h (AUC0–8) and the area under the concentration–time curve between 0 and infinity (AUC0–∞). The results were expressed as mean values ± standard deviation (SD).

[5] = Freeze–thaw stability in plasma; assay type: in vitro ADME, rat; conditions: n = 5
Experimental: The mean recovery was determined at low, medium and high concentrations from five replicates. The long-term storage stability at −80 °C was determined after 15, 30, 60 and 90 d. Bench-top stability testing was also conducted. Samples were spiked in blank plasma and extracted, then analyzed in three replications at 25 °C for 0, 1, 2, 4, 6 and 8 h. The freeze–thaw cycles were stabilized. Rhodomyrtone was spiked in blank plasma, then stored in a freezer (−20 °C) and thawed every 24 h at room temperature (25 °C) for three cycles prior to extraction.

[6] = test system: Staphylococcus epidermidis ATCC 35984 (biofilm positive); design: method as in PMID 34067029; conditions: cited from earlier work
staphylococcal isolates = conditions: most staphylococcal isolates; no reference given; cited from earlier work
[7] = male, Sprague Dawley, plasma, rat, single oral dose 50 mg/kg, n = 12
[8] = male, Sprague-Dawley, plasma, rat, single oral dose 50 mg/kg, n = 12
[9] = male, Sprague-Dawley, plasma, rat, single oral dose 100 mg/kg, n = 12

Question: Which MBCs (MRSA) does the source give for `CC(C)CC(=O)c1c(O)cc2c(c1O)[C@@H](CC(C)C)C1=C(O2)C(C)(C)C(=O)C(C)(C)C1=O` [rhodomyrtone, Rhodomyrtone] here?
Answer: 0.03 to 1.00 µg/mL

Question: And the MIC [1]?
Answer: 0.5 to 2 µg/mL

Question: What about the MIC (MRSA clinical isolated) of the same compound?
Answer: 0.39 to 0.78 µg/mL

Question: What about the LD50 [2] of the same compound?
Answer: 2000 mg/kg

Question: What about the MIC [3] of the same compound?
Answer: 0.5 µg/mL (≈ 1.13 µM)

Question: What about the resistance development (S. aureus or MRSA) of the same compound?
Answer: not found to be resistant

Question: And the MIC (Bacillus cereus)?
Answer: 0.39 µg/mL (≈ 0.881 µM)

Question: What about the half-life ([4]; male, Sprague Dawley, plasma, rat, oral, 50 to 100 mg/kg, read-out: terminal elimination phase half-life (t1/2) (converted)) of the same compound?
Answer: ~150 min

Question: What about the CL/F [4, 7] of the same compound?
Answer: 266 mL/min/kg

Question: And the AUC(0-t) [4, 7]?
Answer: 2680 ± 1090 ng·h/mL

Question: And the half-life ([4]; male, Sprague Dawley, plasma, rat, single oral dose 50 mg/kg, n = 12, read-out: t1/2 (converted))?
Answer: 132 ± 44.4 min

Question: What about the CL/F ([4]; male, Sprague Dawley, plasma, rat, single oral dose 100 mg/kg, n = 12) of the same compound?
Answer: 221 mL/min/kg

Question: What about the half-life ([4]; male, Sprague Dawley, plasma, rat, single oral dose 100 mg/kg, n = 12, read-out: t1/2 (converted)) of the same compound?
Answer: 152 ± 55.2 min

Question: And the bioavailability ([4]; male, Sprague Dawley, rat, plasma, oral, estimated from SwissADME bioavailability score and AUC, no intravenous data)?
Answer: ~10%

Question: And the Tmax ([4]; male, Sprague Dawley, rat, plasma, 50 mg/kg, rat, single oral dose 50 mg/kg, n = 12, mean ± SD, read-out: Tmax)?
Answer: 1.92 ± 0.29 h

Question: And the Vd/F ([4]; male, Sprague Dawley, rat, plasma, 50 mg/kg, rat, single oral dose 50 mg/kg, n = 12, read-out: Vz/F)?
Answer: 48.5 ± 16.9 L/kg

Question: What about the Vd/F ([4]; male, Sprague Dawley, rat, plasma, 100 mg/kg, rat, oral, 50 and 100 mg/kg doses (not significantly different), read-out: apparent total volume of distribution (Vz/F)) of the same compound?
Answer: ~50 L/kg

Question: And the Tmax ([4]; male, Sprague Dawley, rat, plasma, 100 mg/kg, rat, oral, both 50 and 100 mg/kg doses, read-out: time to maximum plasma concentration (Tmax))?
Answer: 2 h

Question: And the Tmax ([4]; male, Sprague Dawley, rat, plasma, 100 mg/kg, rat, single oral dose 100 mg/kg, n = 12, mean ± SD, read-out: Tmax)?
Answer: 2 h

Question: And the Vd/F ([4]; male, Sprague Dawley, rat, plasma, 100 mg/kg, rat, single oral dose 100 mg/kg, n = 12, read-out: Vz/F)?
Answer: 46.6 ± 13.8 L/kg

Question: And the concentration at 8 h ([4]; male, Sprague Dawley, rat plasma, oral 50 mg/kg, 8 h)?
Answer: ~100 ng/mL

Question: What about the Cmax ([4]; male, Sprague Dawley, rat plasma, single oral dose 50 mg/kg, n = 12) of the same compound?
Answer: 570 ± 120 ng/mL

Question: And the Cmax ([4]; male, Sprague Dawley, rat plasma, single oral dose 100 mg/kg, n = 12)?
Answer: 1310 ± 200 ng/mL

Question: What about the AUC(0-inf) [4, 8] of the same compound?
Answer: 3410 ± 1040 ng·h/mL

Question: What about the k el [4, 8] of the same compound?
Answer: 0.000139 s⁻¹

Question: And the AUC(0-inf) [4, 9]?
Answer: 7820 ± 1530 ng·h/mL

Question: What about the AUC(0-t) [4, 9] of the same compound?
Answer: 6650 ± 1130 ng·h/mL

Question: What about the k el [4, 9] of the same compound?
Answer: 8.33e-05 s⁻¹

Question: And the Cmin ([4]; rat plasma, single oral dose 50 mg/kg, n = 12)?
Answer: 0.14 ± 0.06 µg/mL

Question: And the Cmin ([4]; rat plasma, single oral dose 100 mg/kg, n = 12)?
Answer: 0.31 ± 0.09 µg/mL

Question: And the “time of rhodomyrtone concentrations above MIC (0.5–1 μg/mL) of most staphylococcal isolates” value ([4]; rat, oral 50 mg/kg)?
Answer: approximately 4 h

Question: What about the “Cmax relative to the MBCs for MRSA (0.03–1.00 μg/mL)” value ([4]; rat, oral 100 mg/kg) of the same compound?
Answer: 2–3 times

Question: What about the “time of rhodomyrtone concentrations above MIC (0.5–1 μg/mL) of most staphylococcal isolates” value ([4]; rat, oral 100 mg/kg) of the same compound?
Answer: ~8 h

Question: What about the “AUC0–8 as share of AUC0–∞” value ([4]; rat, oral, 8 h sampling time) of the same compound?
Answer: about 80%

Question: And the “Freeze–thaw stability, Accuracy (%)” value ([5]; Day 0, 0.1 µg/mL)?
Answer: 110.31%

Question: What about the “Freeze–thaw stability, Accuracy (%)” value ([5]; Day 0, 100 µg/mL) of the same compound?
Answer: 103.71%

Question: What about the “Freeze–thaw stability, Accuracy (%)” value ([5]; Day 3 (three cycles −20 °C / 25 °C), 0.1 µg/mL) of the same compound?
Answer: 105.93%

Question: And the “Freeze–thaw stability, Accuracy (%)” value ([5]; Day 3 (three cycles −20 °C / 25 °C), 100 µg/mL)?
Answer: 108.10%

Question: And the MIC [6]?
Answer: 0.39 µg/mL (≈ 0.881 µM)

Question: What about the MIC (staphylococcal isolates) of the same compound?
Answer: 0.5 to 1 µg/mL

From article PMC10885983 (Antibiotics, 2024)
